Test results reported in US12543738B2 (Bayer Aktiengesellschaft, priority 2020, dated 2026).

Assays:
[1] = test system: Sphaerotheca fuliginea; experiment: In vivo preventive test on Sphaerotheca fuliginea (powdery mildew on cucurbits); details: Podosphaera fuliginea, 192 h; 500 ppm of active ingredient; preventive spray on gherkin; evaluated 8 days after inoculation; read-out: efficacy
Method: (§1) The active ingredients were made soluble and homogenized in a mixture of Dimethyl sulfoxide/Acetone//Tween® 80 and then diluted in water to the desired concentration. The young plants of gherkin were treated by spraying the active ingredient prepared as described above. Control plants were treated only with an aqueous solution of Acetone/Dimethyl sulfoxide/Tween® 80. After 24 hours, the plants were contaminated by spraying the leaves with an aqueous suspension of Sphaerotheca fuliginea spores.

[2] = test system: Colletotrichum lindemuthianum; experiment: In vivo preventive test on Colletotrichum lindemuthianum (leaf spot on bean); details: 168 h, 500 ppm of active ingredient, preventive spray on bean, evaluated 7 days after inoculation, read-out: efficacy
Method: as §1, with “bean” for “gherkin”, “Colletotrichum lindemuthianum” for “Sphaerotheca fuliginea”

[3] = test system: Septoria tritici; experiment: Septoria tritici in vitro cell test; assay type: cell-based; details: Zymoseptoria tritici, 168 h; 20 ppm of active ingredient; liquid culture, 7 days incubation; read-out: efficacy (inhibition of fungal growth)
Method: • Solvent: DMSO • Culture medium: 1 g KH2PO4 (VWR), 1 g K2HPO4 (VWR), 0.5 g Urea (VWR), 3 g KNO3 (Prolabo), 10 g saccharose (VWR), 0.5 g MgSO4, 7H2O (Sigma), 0.07 g CaCl2, 2H2O (Prolabo), 0.2 mg MnSO4, H2O (Sigma), 0.6 mg CuSO4, 5H2O (Sigma), 7.9 mg ZnSO4, 7H2O (Sigma), 0.1 mg H3BO3 (Merck), 0.14 mg NaMoO4, 2H2O (Sigma), 2 mg thiamine (Sigma), 0.1 mg biotine (VWR), 4 mg FeSO4, 7H2O (Sigma), QSP 1 liter • Inoculum: spore suspension Fungicides were solubilized in DMSO and the solution used to prepare the required range of concentrations. […] A spore suspension of S. tritici was prepared and diluted to the desired spore density. Fungicides were evaluated for their ability to inhibit spore germination and mycelium growth in liquid culture assay. The compounds were added in the desired concentration to the culture medium with spores. […] Inhibition of fungal growth was determined by comparing the absorbance values in wells containing the fungicides with the absorbance in control wells without fungicides.

[4] = test system: Fusarium culmorum; experiment: Fusarium culmorum in vitro cell test; assay type: cell-based; details: 96 h, 20 ppm of active ingredient, liquid culture, 4 days incubation, read-out: efficacy (inhibition of fungal growth)
Method: • Solvent: DMSO • Culture medium: 14.6 g anhydrous D-glucose (VWR), 7.1 g Mycological Peptone (Oxoid), 1.4 g granulated Yeast Extract (Merck), QSP 1 liter • Inoculum: spore suspension • Fungicides were solubilized in DMSO and the solution used to prepare the required range of concentrations. The final concentration of DMSO used in the assay was ≤1%.
A spore suspension of F. culmorum was prepared and diluted to the desired spore density.
Fungicides were evaluated for their ability to inhibit spore germination and mycelium growth in liquid culture assay. The compounds were added in the desired concentration to the culture medium with spores. After 4 days incubation, fungi-toxicity of compounds was determined by spectrometric measurement of mycelium growth. Inhibition of fungal growth was determined by comparing the absorbance values in wells containing the fungicides with the absorbance in control wells without fungicides.

[5] = test system: Pyrenophora teres; experiment: In vivo preventive test on Pyrenophora teres (net blotch on barley); details: 240 h, 500 ppm of active ingredient, preventive spray on barley, evaluated 10 days after inoculation, read-out: efficacy
Method: as §1, with “barley” for “gherkin”, “Pyrenophora teres” for “Sphaerotheca fuliginea”

[6] = test system: Colletotrichum lindemuthianum; experiment: Colletotrichum lindemuthianum in vitro cell test; assay type: cell-based; details: 144 h, 20 ppm of active ingredient, liquid culture, 6 days incubation, read-out: efficacy (inhibition of fungal growth)
Method: (§2) • Solvent: DMSO • Culture medium: 14.6 g anhydrous D-glucose (VWR), 7.1 g Mycological Peptone (Oxoid), 1.4 g granulated Yeast Extract (Merck), QSP 1 liter • Inoculum: spores suspension Fungicides were solubilized in DMSO and the solution used to prepare the required range of concentrations. […] A spore suspension of C. lindemuthianum was prepared and diluted to the desired spore density. Fungicides were evaluated for their ability to inhibit spores germination and mycelium growth in liquid culture assay. The compounds were added in the desired concentration to the culture medium with spores. After 6 days incubation, fungi-toxicity of compounds was determined by spectrometric measurement of mycelium growth. Inhibition of fungal growth was determined by comparing the absorbance values in wells containing the fungicides with the absorbance in control wells without fungicides.

[7] = Measurement of LogP values by HPLC on reversed phase columns (EEC directive 79/831 Annex V.A8); assay type: physicochemical; details: method [a]: LC-UV, acidic range, 0.1% formic acid in water and acetonitrile; compounds of formula (I-1), Table 1
Method: Calibration was done with straight-chain alkan2-ones (with 3 to 16 carbon atoms) with known LogP values (measurement of LogP values using retention times with linear interpolation between successive alkanones). Lambda-max-values were determined using UV-spectra from 200 nm to 400 nm and the peak values of the chromatographic signals

[8] = test system: Pyricularia Oryzae; experiment: microbe, parasite or virus in culture; assay type: cell-based; details: 120 h, read-out: efficacy (inhibition of fungal growth)
[9] = test system: Botrytis cinerea; experiment: In vivo preventive test on Botrytis cinerea (grey mould); details: 500 ppm of active ingredient, preventive spray on gherkin or cabbage, evaluated 4 to 5 days after inoculation, read-out: efficacy
Method: as §1, with “gherkin or cabbage” for “gherkin”, “Botrytis cinerea” for “Sphaerotheca fuliginea”

[10] = test system: Alternaria alternata; experiment: Alternaria alternata in vitro cell test; assay type: cell-based; details: 120 h, 20 ppm of active ingredient, liquid culture, 5 days incubation, read-out: efficacy (inhibition of fungal growth)
Method: as §2, with “of A. alternata” for “of C. lindemuthianum”, “inhibit spore” for “inhibit spores”, “After 5” for “After 6”

[11] = test system: Alternaria brassicae; experiment: In vivo preventive test on Alternaria brassicae (leaf spot on radish or cabbage); details: 144 h, 500 ppm of active ingredient, preventive spray on radish or cabbage, evaluated 6 days after inoculation, read-out: efficacy
Method: as §1, with “radish or cabbage” for “gherkin”, “Alternaria brassicae” for “Sphaerotheca fuliginea”

| Compound | pest or weed control at 500 ppm [1] [%] | pest or weed control at 500 ppm [2] [%] | inhibition at 20 ppm [3] [%] | inhibition at 20 ppm [4] [%] | pest or weed control at 500 ppm [5] [%] | inhibition at 20 ppm [6] [%] | chromatographic logP [7] | inhibition at 20 ppm [8] [%] | pest or weed control at 500 ppm [9] [%] | inhibition at 20 ppm [10] [%] | pest or weed control at 500 ppm [11] [%] |
| --- | --- | --- | --- | --- | --- | --- | --- | --- | --- | --- | --- |
| Cc1cc(C2=NOCC(Cc3ccc(Cl)cc3Cl)N2)c(Oc2cccc(C)c2F)nn1 (racemic) [Compound I-007, (5RS)-5-(2,4-dichlorobenzyl)-3-[3-(2-fluoro-3-methylphenoxy)-6-methylpyridazin-4-yl]-5,6-dihydro-4H-1,2,4-oxadiazine] | 90 to 100 | 90 to 100 | 90 to 100 | 90 to 100 | 90 to 100 | 90 to 100 | 3.91 | 90 to 100 | 90 to 100 | 90 to 100 | 90 to 100 |
| Cc1cc(C)cc(CC2CON=C(c3cc(C)nnc3Oc3cccc(Cl)c3F)N2)c1 (racemic) [Compound I-010, (5RS)-3-[3-(3-chloro-2-fluorophenoxy)-6-methylpyridazin-4-yl]-5-(3,5-dimethylbenzyl)-5,6-dihydro-4H-1,2,4-oxadiazine] | 90 to 100 | 90 to 100 | 90 to 100 | 90 to 100 | 90 to 100 | 90 to 100 | 4.01 | 90 to 100 | 90 to 100 | 90 to 100 | 90 to 100 |
| Cc1ccc(C)c(CC2CON=C(c3cc(C)nnc3Oc3cccc(Cl)c3)N2)c1 (racemic) [Compound I-011, (5RS)-3-[3-(3-chlorophenoxy)-6-methylpyridazin-4-yl]-5-(2,5-dimethylbenzyl)-5,6-dihydro-4H-1,2,4-oxadiazine] | 90 to 100 | 90 to 100 | 90 to 100 | 70 to 79 | 90 to 100 | 90 to 100 | 3.7 | 90 to 100 | 90 to 100 | 90 to 100 | 90 to 100 |
| Cc1ccc(C)c(CC2CON=C(c3cc(C)nnc3Oc3cccc(Cl)c3F)N2)c1 (racemic) [Compound I-012, (5RS)-3-[3-(3-chloro-2-fluorophenoxy)-6-methylpyridazin-4-yl]-5-(2,5-dimethylbenzyl)-5,6-dihydro-4H-1,2,4-oxadiazine] | 90 to 100 | 90 to 100 | 90 to 100 | 90 to 100 | 90 to 100 | 90 to 100 | 3.8 | 90 to 100 | 90 to 100 | 90 to 100 | 90 to 100 |
| CCc1cccc(Oc2nnc(C)cc2C2=NOCC(Cc3ccc(C)cc3C)N2)c1F (racemic) [Compound I-014, (5RS)-5-(2,4-dimethylbenzyl)-3-[3-(3-ethyl-2-fluorophenoxy)-6-methylpyridazin-4-yl]-5,6-dihydro-4H-1,2,4-oxadiazine] | 90 to 100 | 90 to 100 | 90 to 100 | 90 to 100 | 90 to 100 | 90 to 100 | 4.12 | 90 to 100 | 90 to 100 | 90 to 100 | 90 to 100 |
| C[C@@H](F)c1cc(C2=NOC[C@@H](Cc3ccc(Cl)cc3Cl)N2)c(Oc2cccc(C3CC3)c2F)nn1 (racemic) [Compound I-018, (5RS)-3-{3-(3-cyclopropyl-2-fluorophenoxy)-6-[(1RS)-1-fluoroethyl]pyridazin-4-yl}-5-(2,4-dichlorobenzyl)-5,6-dihydro-4H-1,2,4-oxadiazine] | 90 to 100 | 90 to 100 | 90 to 100 | 90 to 100 | 90 to 100 | 90 to 100 | 4.74 | 90 to 100 | 90 to 100 | 90 to 100 | 90 to 100 |
| O=CN1C(c2cc(Cl)nnc2Oc2cccc(C3CC3)c2F)=NOCC1Cc1ccc(Cl)cc1Cl (racemic) [Compound I-025, (5RS)-3-[6-chloro-3-(3-cyclopropyl-2-fluorophenoxy)pyridazin-4-yl]-5-(2,4-dichlorobenzyl)-5,6-dihydro-4H-1,2,4-oxadiazine-4-carbaldehyde] | 90 to 100 | 90 to 100 | 90 to 100 | 90 to 100 | 90 to 100 | 90 to 100 | 4.93 | 90 to 100 | 90 to 100 | 90 to 100 | 90 to 100 |
